# pIC50: −log10 of the molar value.
# Assays:
# thromboxane synthetase [1] = biological target: T1, thromboxane synthetase (Homo sapiens, UniProt P24557); assay: Test Example 5: Thromboxane synthetase inhibiting activity (human platelet microsomal fraction, RIA); assay type: biochemical; settings: PGH2, room temperature, 60 seconds, read-out: Inhibition of thromboxane synthetase IC50
# T1 sequence (P24557 1-533): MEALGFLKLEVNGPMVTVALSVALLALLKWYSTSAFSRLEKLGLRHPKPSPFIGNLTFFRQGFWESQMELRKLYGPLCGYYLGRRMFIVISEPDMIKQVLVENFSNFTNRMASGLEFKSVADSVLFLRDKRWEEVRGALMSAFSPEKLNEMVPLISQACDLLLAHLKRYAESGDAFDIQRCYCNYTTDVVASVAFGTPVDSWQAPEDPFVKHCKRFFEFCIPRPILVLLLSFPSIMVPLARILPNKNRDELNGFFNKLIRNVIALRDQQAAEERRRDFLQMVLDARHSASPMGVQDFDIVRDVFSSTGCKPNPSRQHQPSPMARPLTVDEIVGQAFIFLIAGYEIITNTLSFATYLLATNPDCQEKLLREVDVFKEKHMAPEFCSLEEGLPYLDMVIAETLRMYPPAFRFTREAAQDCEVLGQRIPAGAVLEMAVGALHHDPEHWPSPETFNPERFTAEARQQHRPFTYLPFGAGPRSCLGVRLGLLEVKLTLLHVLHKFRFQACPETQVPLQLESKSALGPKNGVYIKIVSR
# Description: Arachidonic acid (10 nM) was added to 250 μg of microsome of sheep seminal vesicle gland, commercially available from Hilran Biochemical, Co. Ltd., Israel, Lot SM36, which was then reacted at room temperature for 90 seconds to prepare PGH2.
# Commercially available human platelet microsomal fraction (200 μg) as a source for thromboxane synthetase was mixed with the PGH2 solution prepared in the same manner as for samples, and reacted together at room temperature for 60 seconds. Diethyl ether/methanol/0.2M citric acid (30:4:1) was added to extract thromboxane A2 generated and its quantity was then analyzed by RIA using a kit manufactured by NEN, Co. LTd.
# [2] = test system: platelet aggregation, induced by U-46619; assay: Test Examples 4: Platelet aggregation inhibiting activity (guinea pig PRP, U-46619); assay type: cell-based; settings: Cavia porcellus, 320 nM U-46619, 37° C., read-out: Platelet aggregation activity IC50 (concentration of 50% inhibition of platelet aggregation, induced by U-46619)
# Description: A blood sample was taken from carotid artery of a guinea pig using a syringe containing 3.8% sodium citrate solution (1/10 volume of the blood to be collected). The blood was centrifuged to obtain platelet riched plasma (PRP: number of platelets, 3×10^5 /μ1).
# Two hundred microliters of the PRP and 23.75 µl of physiological saline were placed in a cuvette, which was then set in an aggregometer, followed by heating at 37° C. for two minutes, and then followed by addition of 1.25 µl of the solution of an N-(3-pyridylalkyl)sulfonamide derivative of the present invention in ethanol, for 3-min incubation. Then, U-46619, one of stable PGG2 /H2 derivatives, having strong action inducing platelet aggregation, was added, so that platelet aggregation was measured by an aggregometer [Hematracer VI: manufactured by NIKO Bioscience, K.K.].
# thromboxane synthetase [3] = biological target: T1, thromboxane synthetase; assay: Test Example 2: Thromboxane synthetase inhibiting activity (human PRP, thrombin, RIA); assay type: cell-based; settings: for pIC50: 20 U/ml thrombin, RIA, read-out: Inhibition of thromboxane A2 synthesis (IC50); for thromboxane synthetase inhibiting activity (in words): thrombin
# Description: (§1) A blood sample was collected from human fore arm using a syringe containing 3.8% sodium citrate solution (1/10 volume of the blood to be collected) and centrifuged to obtain platelet rich plasma (PRP; 3 ×10^5 platelets/μ1).
# (§2) A 200 μ1 portion of the thus prepared PRP and 23.75 µl of physiological saline were put in a cuvette, the cuvette was set into the aforementioned aggregometer and the contents in the cuvette were incubated at 37° C. for 2 minutes. Thereafter, 1.25 μ1 dimethyl sulfoxide (DMSO) solution of each of the N-(3-pyridylalkyl)sulfonamide derivatives obtained in Examples 1, 3 and 7 was put in the cuvette and incubated for 3 minutes, followed by the addition of 20 U/ml solution of thrombin to cause platelet aggregation. A portion of the supernatant after aggregation reaction was mixed with diethyl ether/methanol/0.2M citric acid (30:4:1 ), and the thus formed thromboxane A2 was extracted and its quantity was analyzed by RIA using a kit of Amersham.
# [4] = test system: platelet aggregation caused by U-46619; assay: Test Example 1: Platelet aggregation inhibiting activity (human PRP, U-46619); assay type: cell-based; settings: for pIC50: Platelet, 320 nM U-46619, 37° C., read-out: Inhibitory effect against platelet aggregation caused by U-46619 (IC50); for platelet aggregation inhibiting activity (in words): U-46619
# Description: as §1
# (§3) Platelet aggregation was measured using an aggregometer (Hematracer VI, Niko Bioscience Co., Ltd.) by putting 200 µl of the thus prepared PRP and 23.75 µl of physiological saline in a cuvette, setting the cuvette into the aggregometer and incubating the contents at 37° C. for 2 minutes, adding 1.25 μ1 dimethyl sulfoxide (DMSO) solution of each of the N-(3-pyridylalkyl)sulfonamide derivatives obtained in Examples 1, 3, 4, 6 and 8 and incubating for 3 minutes, and then adding U-46619 (Cayman Chemical Co., Inc.) which is a stable PGG2/ H2 derivative having a strong platelet aggregation causing activity.
# In this instance, the term "IC50 "as used herein means concentration of the N-(3-pyridylalkyl)sulfonamide derivative of the present invention required to inhibit 50% of the platelet agglutination when platelet aggregation without introducing the inventive derivative was defined as 100%.
# [5] = test system: platelet aggregation caused by U-46619; assay: Test Examples 6: Platelet aggregation inhibiting activity (human PRP, U-46619); assay type: cell-based; settings: for pIC50: Platelet, 320 nM U-46619, 37° C., read-out: Inhibitory effect against platelet aggregation caused by U-46619 (IC50); for platelet aggregation inhibiting activity (in words): U-46619
# Description: A blood sample was collected from human fore arm using a syringe containing 3.8% sodium citrate solution (1/10 volume of the blood to be collected) and centrifuged to obtain platelet rich plasma (PRP; 3×10^5 platelets/μl).
# as §3, with “200 μof” for “200 µl of”, “23.75 μl” for “23.75 µl”, “1.25 μl” for “1.25 μ1”, “Examples 35, 36, 37” for “Examples 1, 3, 4, 6”, “and 42” for “and 8”, “stable PGG2 /H2” for “stable PGG2/ H2”
# In this instance, the term "IC50 " as used herein means concentration of the N-(3-pyridylalkyl)sulfonamide derivative of the present invention required to inhibit 50% of the platelet aggregation when platelet aggregation without introducing the inventive derivative was defined as 100%.
# thromboxane synthetase [6] = biological target: T1, thromboxane synthetase; assay: Test Example 7: Thromboxane synthetase inhibiting activity (human PRP, thrombin, RIA); assay type: cell-based; settings: for pIC50: 20 U/ml thrombin, RIA, read-out: Inhibition of thromboxane A2 synthesis (IC50); for thromboxane synthetase inhibiting activity (in words): thrombin
# Description: A blood sample was collected from human fore arm using a syringe containing 3.8% sodium citrate solution (1/10 volume of the blood to be collected) and centrifuged to obtain platelet rich plasma (PRP; 3×10^5 platelets/μl ).
# as §2, with “200 μl” for “200 μ1”, “23.75 μl” for “23.75 µl”, “Examples 36, 37, 38” for “Examples 1, 3”, “and 40” for “and 7”, “acid (30:4:1),” for “acid (30:4:1 ),”
Compound,pIC50 (thromboxane synthetase [1]),pIC50 [2],further results
O=C(O)COc1ccc(CC(NS(=O)(=O)c2ccccc2)c2cccnc2)cc1 (stereo not shown) [Example 13],5.05,6.08,–
O=C(O)COc1ccc(CC(CNS(=O)(=O)c2ccc(Cl)cc2)c2cccnc2)cc1 (stereo not shown) [Example 26],5.62,4.22,–
CCOC(=O)Oc1ccc(C(CNS(=O)(=O)c2ccc(Cl)cc2)Cc2cccnc2)cc1 (stereo not shown) [Example 24],5.66,4.40,–
"CCOC(=O)COc1ccc(C(NS(=O)(=O)c2ccc(Cl)cc2)c2cccnc2)cc1 (stereo not shown) [Example 1, ethyl 4-[4-chlorobenzenesulfonamide-(3-pyridyl)methyl]phenyloxyacetate]",–,–,pIC50 (thromboxane synthetase [3]): 7.43; thromboxane synthetase inhibiting activity (in words) (thromboxane synthetase [3]): excellent thromboxane synthetase inhibiting activity; pIC50 [4]: 4.02; platelet aggregation inhibiting activity (in words) [4]: markedly high platelet aggregation inhibiting activity
CCOC(=O)Oc1ccc(CC(CNS(=O)(=O)c2ccc(Cl)cc2)c2cccnc2)cc1 (stereo not shown) [Example 27],4.55,4.28,–
"O=C(O)COc1ccc(CCC(NS(=O)(=O)c2ccc(Cl)cc2)c2cccnc2)cc1 (stereo not shown) [Example 31, 4-[3-(4-chlorobenzenesulfonamido)-3-(3-pyridyl)propyl]phenoxyacetic acid]",6.03,4.82,–
"C/C(=C\c1ccc(C(CNS(=O)(=O)c2ccc(Cl)cc2)Cc2cccnc2)cc1)C(=O)O (stereo not drawn) [Example 36, 4-[1-(4-chlorobenzenesulfonamido)-3-(3-pyridyl)-2-propyl]-α-methylcinnamic acid]",–,–,pIC50 [5]: 4.15; platelet aggregation inhibiting activity (in words) [5]: markedly high platelet aggregation inhibiting activity; pIC50 (thromboxane synthetase [6]): 5.08; thromboxane synthetase inhibiting activity (in words) (thromboxane synthetase [6]): excellent thromboxane synthetase inhibiting activity
C/C(=C\c1ccc(CC(NS(=O)(=O)c2ccc(Cl)cc2)c2cccnc2)cc1)C(=O)O (stereo not shown) [Example 35],–,–,pIC50 [5]: 4.32; platelet aggregation inhibiting activity (in words) [5]: markedly high platelet aggregation inhibiting activity
"O=C(O)COc1ccc(C(CNS(=O)(=O)c2ccc(Cl)cc2)Cc2cccnc2)cc1 (stereo not shown) [Example 23, 4-[{1-(4-chlorobenzenesulfonamido)-3-(3-pyridyl)}propan-2-yl]phenoxyaceticacid]",5.29,6.44,–
Cc1ccc(S(=O)(=O)NC(Cc2ccc(OCC(=O)O)cc2)c2cccnc2)cc1 (stereo not shown) [Example 11],4.68,5.72,–
"O=C(O)c1ccc(CCC(NS(=O)(=O)c2ccc(Cl)cc2)c2cccnc2)cc1 (stereo not shown) [Example 29, 4-[3-(4-chlorobenzenesulfonamido)-3-(3-pyridyl)propyl]benzoic acid]",5.82,5.70,–
"CCOC(=O)/C(C)=C/c1ccc(C(CNS(=O)(=O)c2ccc(Cl)cc2)c2cccnc2)cc1 (stereo not drawn) [Example 40, ethyl 4-[2-(4-chlorobenzenesulfonamido)-1-(3-pyridyl)ethyl]-α-methylcinnamate]",–,–,pIC50 (thromboxane synthetase [6]): 5.82; thromboxane synthetase inhibiting activity (in words) (thromboxane synthetase [6]): excellent thromboxane synthetase inhibiting activity
"O=C(O)Cc1ccc(CC(NS(=O)(=O)c2ccc(Cl)cc2)c2cccnc2)cc1 (stereo not shown) [Example 21, 4-[2-(4-chlorobenzenesulfonamido)-2-(3-pyridyl)ethyl]phenylacetic acid]",5.66,6.17,–
"O=C(O)COc1ccc(C(CCNS(=O)(=O)c2ccc(Cl)cc2)c2cccnc2)cc1 (stereo not shown) [Example 7, 4-[3-(4-chlorobenzenesulfonamido)-1-(3-pyridyl)propyl]phenyloxyacetic acid]",–,–,thromboxane synthetase inhibiting activity (in words) (thromboxane synthetase [3]): excellent thromboxane synthetase inhibiting activity; pIC50 [4]: 4.52; platelet aggregation inhibiting activity (in words) [4]: markedly high platelet aggregation inhibiting activity
"O=C(O)COc1ccc(C(CCNS(=O)(=O)c2ccc(Cl)cc2)Cc2cccnc2)cc1 (stereo not shown) [Example 8, 4-[1-(4-chlorobenzenesulfonamido)-4-(3-pyridyl)-3-butyl]phenyloxyacetic acid]",–,–,pIC50 (thromboxane synthetase [3]): 5.37
O=C(O)COc1ccc(CC(CCNS(=O)(=O)c2ccc(Cl)cc2)c2cccnc2)cc1 (stereo not shown) [Example 33],7.52,4.77,–
"O=C(O)CCc1ccc(CC(NS(=O)(=O)c2ccc(Cl)cc2)c2cccnc2)cc1 (stereo not shown) [Example 17, 3-{4-[2-(4-chlorobenzenesulfonamido)-2(3-pyridyl)ethyl]phenyl}propionic acid]",4.52,5.74,–
C/C(=C\c1ccc(C(CCNS(=O)(=O)c2ccc(Cl)cc2)c2cccnc2)n1C)C(=O)O (stereo not shown) [Example 42],–,–,pIC50 [5]: 4.37; platelet aggregation inhibiting activity (in words) [5]: markedly high platelet aggregation inhibiting activity
CCOC(=O)COc1ccc(C(CCNS(=O)(=O)c2ccc(Cl)cc2)Cc2cccnc2)cc1 (stereo not shown) [Example 9],–,–,pIC50 [4]: 5.29; platelet aggregation inhibiting activity (in words) [4]: markedly high platelet aggregation inhibiting activity
"O=C(O)/C=C/c1ccc(CC(NS(=O)(=O)c2ccc(Cl)cc2)c2cccnc2)cc1 (stereo not shown) [Example 15, 4-[2-(4-chlorobenzenesulfonamido]-2-(3-pyridyl)ethyl]cinnamic acid]",4.44,5.96,–
O=C(O)c1ccc(CC(NS(=O)(=O)c2ccc(Cl)cc2)c2cccnc2)cc1 (stereo not shown) [Example 19],6.00,5.38,–

# Source: patent US5374641A, “N-(3-pyridylalkyl)sulfonamide compounds which have useful pharmaceutical activity” (Terumo Kabushiki Kaisha, priority 1991, dated 1994)
